Legend:
[1] = target: T1, human SMVT (SLC5A6) (Homo sapiens, UniProt Q9Y289); assay: Electrogenic transport in SMVT-expressing Xenopus oocytes (two-electrode voltage-clamp); assay type: cell-based; details: tested at 0.5 mM on oocytes expressing SMVT; membrane potential -60 mV
T1 construct: The complete open reading frame of human SMVT (SLC5A6) was amplified; expressed in transfected cells; host or cells: Xenopus oocytes injected with cRNA transcribed in vitro from the pMO plasmid
T1 sequence (Q9Y289 1-635): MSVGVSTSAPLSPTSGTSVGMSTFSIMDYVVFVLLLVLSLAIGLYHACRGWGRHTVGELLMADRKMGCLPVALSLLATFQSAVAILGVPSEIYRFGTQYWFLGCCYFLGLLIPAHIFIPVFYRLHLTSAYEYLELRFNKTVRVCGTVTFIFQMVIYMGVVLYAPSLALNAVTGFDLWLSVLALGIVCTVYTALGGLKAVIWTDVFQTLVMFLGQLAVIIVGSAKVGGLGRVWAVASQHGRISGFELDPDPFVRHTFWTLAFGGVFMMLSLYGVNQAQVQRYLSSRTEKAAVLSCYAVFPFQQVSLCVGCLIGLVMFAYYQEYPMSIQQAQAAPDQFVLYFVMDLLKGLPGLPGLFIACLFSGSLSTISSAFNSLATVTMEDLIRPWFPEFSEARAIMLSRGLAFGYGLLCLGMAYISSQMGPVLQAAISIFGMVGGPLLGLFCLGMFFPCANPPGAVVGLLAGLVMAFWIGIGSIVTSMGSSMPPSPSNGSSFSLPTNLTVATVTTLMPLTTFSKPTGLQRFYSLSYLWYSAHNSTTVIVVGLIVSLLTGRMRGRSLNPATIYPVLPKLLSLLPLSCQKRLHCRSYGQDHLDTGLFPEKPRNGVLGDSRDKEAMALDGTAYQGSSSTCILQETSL
Excerpt: Transporter Cloning: The complete open reading frame of human SMVT (SLC5A6) was amplified from human cDNA prepared from intestinal mRNA. Gene-specific oligonucleotide primers were designed against Genbank sequences (NM-021095). Amplified PCR products were cloned into a modified version of the mammalian expression vector pcDNA3 (termed pMO) that was engineered to contain the 5′ and 3′ untranslated regions from the Xenopus beta-globin gene. All clones were completely sequenced and tested for function by transient transfection in HEK293 cells. Radiolabeled ^3H biotin was used to assess SMVT function (see method below).
Xenopus Oocyte Expression and Electrophysiology: cRNA for oocyte expression was prepared by linearization of plasmid cDNA and in vitro transcription using T7 polymerase (Epicentre Ampliscribe kit). Xenopus oocytes were prepared and maintained as previously described (Collins et al., Proc. Natl. Acad. Sci. 1997, 13:5456-5460) and injected with 10-30 ng RNA. Transport currents were measured 2-6 days later using two-electrode voltage-clamp (Axon Instruments). […] Half-maximal concentrations were calculated using non-linear regression curve fitting software (Prism) with the Hill co-efficient fixed to 1. […]

[2] = oral dosing, rats; Raoof et al., Pharm. Res. 1996; cited from earlier work

| SMILES | SMVT-specific currents above background, normalized to maximal biotin elicited current [1] | fraction of administered drug undergoing first pass metabolism [2] |
| --- | --- | --- |
| CC(C)c1cccc(C(C)C)c1OC(=O)c1ccccc1C(=O)NCCC(=O)O [Compound 101, 3-{[2-[2,6-Bis(isopropyl)phenoxycarbonyl]-benzoyl]amino}-propanoic acid] | at least 10 % of Imax for biotin |  |
| CC(C)c1cccc(C(C)C)c1O [Propofol, 2,6-diisopropylphenol] |  | approximately 90% |

From US7576127B2, “Aromatic prodrugs of propofol, compositions and uses thereof” (XenoPort, Inc., priority 2003, dated 2009)
